Laboratory results: patent US9856250B2, “Substituted tropane derivatives” (TOA EIYO LTD., priority 2014, dated 2018)
Where two headings read alike, the source gives them in different places.

Tests used:
[1] = tested on: Salmonella typhimurium TA98 and TA100; assay: Reverse mutation test (Ames test), pre-incubation method; type: cell-based; settings: strains TA98 and TA100; for Ames test S9 (−): absence of metabolic activation system (S9mix (−)); for Ames test S9 (+): presence of metabolic activation system (rat liver S9mix (+))
Protocol: The presence or absence of genotoxicity in the compounds of the present invention was evaluated by a reverse mutation test (Ames test) using bacteria. The test was performed by a pre-incubation method using two bacterial strains of Salmonella typhimurium TA98 and TA100, in the absence of a metabolic activation system (S9mix (−)) and in the presence of a metabolic activation system (S9mix (+)). The compounds were dissolved in dimethyl sulfoxide (DMSO), and thus test liquids were prepared. Regarding the negative control, the solvent DMSO was used. Regarding the positive control, 2-(2-furyl)-3-(5-nitro-2-furyl)acrylamide (AF-2) was used for S9mix (−), and 2-aminoanthracene (2-AA) was used for S9mix (+).
0.1 mL of a test liquid was introduced into a sterilized test tube, and then 0.5 mL of a 0.1 mol/L sodium phosphate buffer solution (pH 7.4) was added to the test tube in the case of S9mix (−), or 0.5 mL of rat liver S9mix was added to the test tube in the case of S9mix (+). Furthermore, 0.1 mL of a precultured test strain suspension was added to the test tube, and then the test strain was subjected to shaking culture for 20 minutes at 37° C. (preincubation). […] Subsequently, the content of the test tube was superposed on a minimum glucose agar medium plate and was spread evenly. The plate was cultured for 48 hours at 37° C. in a thermostat. After completion of culture, the number of reverse mutation colonies grown on the plate was measured using a colony counter. Regarding the determination, a case in which the number of reverse mutation colonies increased to twice or more of the number of colonies of the negative control, and concentration-dependency was recognized, was regarded as positive. […]

[2] = molecular target: human T-type calcium channels (human Cav3.2) (Homo sapiens (Human), UniProt O95180); assay: Antagonistic activity against T-type calcium channels (Cav3.2), Fura2 intracellular calcium assay in HEK293 cells; type: cell-based
Protocol: For representative compounds of the present invention, the antagonistic activity against T-type calcium channels (Cav3.2) was examined by the Test Examples described below. For the respective tests, human embryo kidney cells (HEK293 cells) in which human T-type calcium channels (human Cav3.2) were stably expressed were used.
The HEK293 cells having human Cav3.2 stably expressed therein were cultured at 37° C. in Alpha-MEM, to which 10% (v/v) fetal bovine serum (FBS), penicillin (100 U/mL), streptomycin (100 μg/mL), and G418 ([…]) had been added. The cells were suspended in the culture liquid and were inoculated onto a 96-well plate. Subsequently, the cells were cultured for 48 hours. The culture liquid was removed, and the liquid was changed to S-MEM, to which 5% (v/v) FBS, calcium chloride (0.5 mmol/L), L-glutamine (2 mmol/L), L-alanine (8.9 ng/mL), L-asparagine (13.2 ng/mL), L-aspartic acid (1.33 ng/mL), L-glutamic acid (14.7 ng/mL), glycine (7.5 ng/mL), L-proline (11.5 ng/mL, L-serine (10.5 ng/mL), penicillin (100 U/mL), and streptomycin (100 μg/mL) had been added. The cells were cultured for another 24 hours. The culture liquid was removed again, and the cells were washed with an assay buffer (140 mmol/L sodium chloride, 5 mmol/L potassium chloride, 0.5 mmol/L magnesium chloride, 0.5 mmol/L calcium chloride, 10 mmol/L glucose, 0.4 mmol/L magnesium sulfate, 10 mmol/L HEPES, and […] sulfinpyrazone, pH 7.4) that had been kept warm at 37° C. Subsequently, an assay buffer prepared by dissolving Fura2-AM, which is a fluorescent Ca^2+ indicator, to a concentration of 5 μM, was added to the cells, and the system was incubated for 30 minutes at 37° C. The assay buffer having Fura2 dissolved therein was removed, and the cells were washed with the assay buffer. Subsequently, an assay buffer prepared by adding a test compound was added to the cells, and the system was incubated for 15 minutes. The plate was mounted on a fluorescence analyzer (FLEX STATION II, Molecular Devices, LLC), and the baseline was measured for 20 seconds. Subsequently, any change in the intracellular calcium concentration that was induced when an assay buffer prepared by adding 100 mmol/L calcium chloride was added to the cells, was measured (excited at 340 nm or 380 nm, and detected at 510 nm). The fluorescence intensity ratios obtainable at the respective wavelengths were calculated.
Meanwhile, the test compound solution was prepared by dissolving each test compound in DMSO to a concentration of 10 mmol/L, and then adjusting the concentration with the assay buffer so as to obtain the set concentration. For the control solution, DMSO was used instead of a test compound.
The inhibitory activity level (%) of a test compound was calculated by subtracting the average value of the fluorescence intensity ratio for a period of 0 to 20 seconds after initiation of measurement, from the average value of the fluorescence intensity ratio for a period of 45 to 50 seconds after initiation of measurement, taking the value obtained using the control solution as the maximum activity of Cav3.2, and comparing this value with the activity in the presence of the test compound.
Calculation of IC50 Value:
The inhibitory activity of each test compound was measured at concentrations of […], and the IC50 value was calculated using the curve fitting formula (Model 08: sigmoidal inhibition curve) of ASSAY EXPLORER (Symyx Technologies, Inc.).
Average of RFU value obtained for 25 to 30 seconds after the addition of a […] assay buffer after treatment with the control solution (for 45 to 50 seconds after the initiation of measurement). The RFU in the formula represents the Relative Fluorescence Unit.

[3] = HEK293 cells stably expressing human Cav3.2, Fura2 fluorescence ratio after calcium chloride addition, read-out: IC50

Chain of human T-type calcium channels (human Cav3.2) (O95180 whole entry): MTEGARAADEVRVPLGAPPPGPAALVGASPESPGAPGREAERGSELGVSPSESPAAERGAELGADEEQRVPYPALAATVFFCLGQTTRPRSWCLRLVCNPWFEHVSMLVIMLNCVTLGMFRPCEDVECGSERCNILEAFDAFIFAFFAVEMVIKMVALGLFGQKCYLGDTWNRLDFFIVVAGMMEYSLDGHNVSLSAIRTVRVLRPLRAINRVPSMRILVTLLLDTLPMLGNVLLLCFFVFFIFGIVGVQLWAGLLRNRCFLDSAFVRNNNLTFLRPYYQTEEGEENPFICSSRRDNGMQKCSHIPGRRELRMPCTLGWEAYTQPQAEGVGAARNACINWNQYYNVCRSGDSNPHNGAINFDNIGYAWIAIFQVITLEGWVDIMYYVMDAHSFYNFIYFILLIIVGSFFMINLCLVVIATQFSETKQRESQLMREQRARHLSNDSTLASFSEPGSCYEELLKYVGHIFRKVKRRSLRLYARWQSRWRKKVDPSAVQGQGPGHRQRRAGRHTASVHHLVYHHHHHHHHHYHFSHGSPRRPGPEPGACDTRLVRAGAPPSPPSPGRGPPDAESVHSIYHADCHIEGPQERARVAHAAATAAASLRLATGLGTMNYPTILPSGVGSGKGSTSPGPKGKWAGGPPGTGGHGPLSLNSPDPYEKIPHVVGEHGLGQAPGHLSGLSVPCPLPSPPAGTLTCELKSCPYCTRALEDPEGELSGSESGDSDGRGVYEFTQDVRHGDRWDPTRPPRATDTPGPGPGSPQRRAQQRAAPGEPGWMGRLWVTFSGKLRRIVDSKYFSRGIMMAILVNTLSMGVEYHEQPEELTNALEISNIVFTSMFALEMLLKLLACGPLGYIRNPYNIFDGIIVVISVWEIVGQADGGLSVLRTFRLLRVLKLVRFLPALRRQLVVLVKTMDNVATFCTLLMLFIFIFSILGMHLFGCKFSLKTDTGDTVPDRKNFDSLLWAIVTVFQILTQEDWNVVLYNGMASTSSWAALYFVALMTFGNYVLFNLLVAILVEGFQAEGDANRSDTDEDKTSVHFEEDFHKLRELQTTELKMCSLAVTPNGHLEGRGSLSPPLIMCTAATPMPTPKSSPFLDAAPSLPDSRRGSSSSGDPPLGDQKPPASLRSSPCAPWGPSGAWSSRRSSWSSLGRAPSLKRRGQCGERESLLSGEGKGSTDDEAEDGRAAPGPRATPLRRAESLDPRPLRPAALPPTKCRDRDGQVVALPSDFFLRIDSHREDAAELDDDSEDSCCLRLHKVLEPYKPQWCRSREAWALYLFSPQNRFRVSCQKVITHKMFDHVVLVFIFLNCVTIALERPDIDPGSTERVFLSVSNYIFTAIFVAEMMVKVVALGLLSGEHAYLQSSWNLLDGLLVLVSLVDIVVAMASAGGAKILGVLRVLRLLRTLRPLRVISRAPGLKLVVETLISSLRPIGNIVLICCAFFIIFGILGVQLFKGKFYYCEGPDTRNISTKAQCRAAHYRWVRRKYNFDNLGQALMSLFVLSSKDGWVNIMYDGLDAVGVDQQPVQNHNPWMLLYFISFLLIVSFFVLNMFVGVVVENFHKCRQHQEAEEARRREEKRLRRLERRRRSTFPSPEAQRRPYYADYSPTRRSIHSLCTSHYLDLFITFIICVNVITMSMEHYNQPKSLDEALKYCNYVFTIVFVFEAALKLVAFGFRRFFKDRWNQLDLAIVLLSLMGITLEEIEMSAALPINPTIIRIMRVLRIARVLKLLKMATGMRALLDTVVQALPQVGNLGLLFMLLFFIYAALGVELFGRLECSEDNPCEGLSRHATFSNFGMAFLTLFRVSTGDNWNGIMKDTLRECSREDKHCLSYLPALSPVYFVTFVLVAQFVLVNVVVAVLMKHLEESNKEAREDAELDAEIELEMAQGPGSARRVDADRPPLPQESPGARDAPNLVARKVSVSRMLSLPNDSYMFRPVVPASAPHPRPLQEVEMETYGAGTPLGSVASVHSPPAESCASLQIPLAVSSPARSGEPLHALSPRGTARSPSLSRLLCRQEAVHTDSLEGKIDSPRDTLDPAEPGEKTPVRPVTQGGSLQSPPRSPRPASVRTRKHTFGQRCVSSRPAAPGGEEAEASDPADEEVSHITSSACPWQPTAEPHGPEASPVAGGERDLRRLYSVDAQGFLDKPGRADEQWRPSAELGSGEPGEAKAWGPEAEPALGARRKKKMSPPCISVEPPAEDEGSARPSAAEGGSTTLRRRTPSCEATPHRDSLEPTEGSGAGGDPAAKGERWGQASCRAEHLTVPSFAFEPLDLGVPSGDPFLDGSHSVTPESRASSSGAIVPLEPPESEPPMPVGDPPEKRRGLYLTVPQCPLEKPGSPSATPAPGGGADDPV

| Structure (SMILES) | Ames test S9 (−) [1] | Ames test S9 (+) [1] | IC50 [2] [nM] | IC50 [2, 3] [nM] |
| --- | --- | --- | --- | --- |
| COc1ccc2[nH]c(C[C@@H]3C[C@H]4CC[C@@H](C3)N4CC(=O)NC(C)(C)C)nc2c1OC [Example 155] | Negative | Negative |  |  |
| CC(C)(C)NC(=O)CN1[C@@H]2CC[C@H]1C[C@H](Cc1nc3c4c(ccc3[nH]1)OCCO4)C2 [Example 123, N-tert-Butyl-2-[(exo)-3-(5,6-dihydro-1H-[1,4]dioxino[2,3-e]benzimidazol-2-yl)methyl-8-azabicyclo[3.2.1]octan-8-yl]acetamide] | Negative | Negative |  |  |
| CC(C)(C)NC(=O)CN1CCC(Cc2nc3ccc4c(c3[nH]2)OCCO4)CC1.Cl.Cl [Control Compound 3, N-tert-Butyl-2-[4-(5,6-dihydro-1H-[1,4]dioxino[2,3-e]benzimidazol-2-yl)methylpiperidin-1-yl]acetamide dihydrochloride, reference compound] | Negative | Positive |  |  |
| COc1ccc(OC)c2[nH]c(C[C@@H]3C[C@H]4CC[C@@H](C3)N4CC(=O)NC(C)(C)C)nc12 [Example 172] | Negative | Negative |  |  |
| CC(C)(C)NC(=O)CN1[C@@H]2CC[C@H]1C[C@H](CNC(=O)c1cc(F)cc(Cl)c1)C2 [Example 54] | Negative | Negative | 20 |  |
| Cc1cccc2[nH]c(CC3CCN(CC(=O)NC(C)(C)C)CC3)nc12 [Control Compound 1, N-tert-Butyl-2-[4-(4-methyl-1H-benzimidazol-2-yl)methylpiperidin-1-yl]acetamide, reference compound] | Negative | Positive |  |  |
| CC(C)(C)NC(=O)CN1[C@@H]2CC[C@H]1C[C@@H](CC(=O)NC13CC4CC(CC(C4)O1)C3)C2.Cl [Example 152, 2-[(endo)-8-(tert-Butylcarbamoyl)methyl-8-azabicyclo[3.2.1]octan-3-yl]-N-(2-oxaadamantan-1-yl)acetamide hydrochloride] | Negative | Negative |  |  |
| COc1cccc2[nH]c(C[C@H]3C[C@H]4CC[C@@H](C3)N4CC(=O)NC(C)(C)C)nc12 [Example 145, N-tert-Butyl-2-[(endo)-3-(4-methoxy-1H-benzimidazol-2-yl)methyl-8-azabicyclo[3.2.1]octan-8-yl]acetamide] | Negative | Negative |  | 98 |
| COc1cccc2[nH]c(CC3CCN(CC(=O)NC(C)(C)C)CC3)nc12 [Control Compound 2, N-tert-Butyl-2-[4-(4-methoxy-1H-benzimidazol-2-yl)methylpiperidin-1-yl]acetamide, reference compound] | Negative | Positive |  |  |
| Cc1cc(C(=O)NC[C@@H]2C[C@H]3CC[C@@H](C2)N3CC(=O)NC(C)(C)C)n(C)n1 [Example 174] | Negative | Negative |  |  |
| CC(C)(C)NC(=O)CN1[C@@H]2CC[C@H]1C[C@H](CNC(=O)C(C)(C)Oc1ccc(C3CC3(Cl)Cl)cc1)C2 (stereo partly drawn) [Example 27] |  |  |  | 94 |
| COc1ccc2[nH]c(C[C@@H]3C[C@H]4CC[C@@H](C3)N4CC(=O)NC(C)(C)C)nc2c1OC [Example 122] |  |  |  | 138 |
| CC(C)(C)NC(=O)CN1[C@@H]2CC[C@H]1C[C@H](CNC(=O)CC13CC4CC(CC(C4)C1)C3)C2 [Example 18] |  |  | 73 |  |
| CN(C(=O)CN1[C@@H]2CC[C@H]1C[C@H](CNC(=O)c1cc(F)cc(Cl)c1)C2)C(C)(C)C [Example 118] |  |  |  | 78 |
| CCn1cc(C(=O)NC[C@@H]2C[C@H]3CC[C@@H](C2)N3CC(=O)NC(C)(C)C)c2ccccc21 [Example 36] |  |  | 49 |  |
| CC1(NC(=O)CN2[C@@H]3CC[C@H]2C[C@H](CNC(=O)c2cc(F)cc(Cl)c2)C3)COC1 [Example 112] |  |  |  | 93 |
| CC(C)(C)NC(=O)CN1[C@@H]2CC[C@H]1C[C@H](CNC(=O)C13CC4CC(CC1C4)C3)C2 [Example 107] |  |  | 49 |  |
| Cc1c(C(=O)NC[C@@H]2C[C@H]3CC[C@@H](C2)N3CC(=O)NC(C)(C)C)c2ccccc2n1C [Example 37] |  |  | 67 |  |
| O=C(CN1[C@@H]2CC[C@H]1C[C@H](CNC(=O)c1cc(F)cc(Cl)c1)C2)NC1(C(F)(F)F)CC1 [Example 114] |  |  |  | 70 |
| CC(C)(C)NC(=O)CN1[C@@H]2CC[C@H]1C[C@H](CNC(=O)c1cccc3c1CCC3)C2 [Example 60] |  |  |  | 78 |
| CC1(NC(=O)CN2[C@@H]3CC[C@H]2C[C@H](CNC(=O)c2cc(F)cc(Cl)c2)C3)CC1 [Example 115] |  |  |  | 63 |
